This is an account of results in US20240002458A1, “NOVEL VHL SMALL MOLECULE PROBES” (St. Jude Children's Research Hospital, priority 2020, published 2024).

Assay [1] addresses T1, GST-VCB protein complex (Homo sapiens, UniProt P40337). Kind of assay: BODIPY FL VH032 (5)-mediated pVHL TR-FRET binding assay (competition). To be noted: for IC50 / Ki: 4 nM BODIPY FL VH032 (5), 2 nM Tb-anti-GST; for IC50 / Ki / pVHL inhibitory activity in the TR-FRET binding assay: 90-min incubation; for Ki: read-out: Ki, pVHL TR-FRET binding assay (Cheng-Prusoff); for pVHL inhibitory activity in the TR-FRET binding assay: 2.1 pM to 30 μM.

The target of assay [2] is T1, GST-VCB protein complex. Kind of assay: BODIPY FL VH032 (5)-mediated pVHL FP binding assay (competition). The note with it: for pVHL inhibitory activity in the FP assay: 2.1 pM to 30 μM. Here is the method: It was freshly prepared every time before an experiment. […] The FP signals were determined at the 90-min incubation time. […] The FP signals or the FP signal fold changes were plotted with the GraphPad Prism software. […] The FP Ki values were used to compare the relative binding affinities of the test ligands to pVHL.

Assay [3] addresses T1, GST-VCB protein complex. Kind of assay: Determination of BODIPY FL VH032 (5) binding Kd to GST-VCB protein complex in a FP binding assay. The note with it: VH298 30 μM, 1000 nM GST-VCB, 10 nM probe. As for the experimental part:
For the BODIPY FL VH032 (5)-mediated pVHL FP binding assay, the general TR-FRET assay protocol was followed except that the […] antibody was not added and the PHERAstar FS plate reader (BMG Labtech; Durham, NC) was equipped with a FP optic module (Excitation: 485 nm, Emission: 520 nm) to read FP assay signals.
The pVHL FP assay buffer has a formula of 25 mM HEPES pH 7.4, 0.01% Tween-20, 0.5 mM DTT, 0.01% BSA. It was freshly prepared every time before an experiment.
BODIPY FL VH032 (5, 10 nM) was incubated with dilutions of GST-VCB (1-to-2 dilutions, a concentration range of 0.03 nM to 1 μM) along with the DMSO group or VH298 (2, 30 μM) group. In addition, BODIPY FL VH032 (5, 10 nM) was incubated with DMSO only, but without GST-VCB. The FP signals were determined with the PHERAstar FS plate reader. The representative data collected at 90-min incubation time was plotted with the GraphPad Prism software using a one-site total binding equation to derive curves for each group. The binding affinity Kd values were derived from the DMSO with GST-VCB.

The next assay deals with VCB (Homo sapiens, UniProt P40337). The note with it: 10 nM FAM-HIF-1α, 15 nM VCB; read-out: Kd, reported FAM-HIF-1α peptide (19-mer)-based FP assay; cited from earlier work.
For assay [4], the target named is T1, GST-VCB protein complex. Put plainly: Determination of BODIPY FL VH032 (5) binding Kd to GST-VCB protein complex in a TR-FRET binding assay. The note with it: for Kd: 2 nM GST-VCB. The source says: For the BODIPY FL VH032 (5)-mediated pVHL TR-FRET binding assay, a reported TR-FRET assay protocol (Lin, et al. (2014) Development of BODIPY FL vindoline as a novel and high-affinity pregnane X receptor fluorescent probe. Bioconjug Chem 25, 1664-1677) was followed except that an Echo 555 Acoustic Liquid Handler (Labcyte Inc., San Jose, CA) was used to dispense chemicals and BODIPY FL VH032 (5), GST-VCB and Tb-anti-GST antibody were used.
The pVHL TR-FRET binding assay buffer has a formula of 50 mM Tris pH 7.5, 0.1% Triton X-100, 0.01% bovine serum albumin, 1 mM DTT. It was freshly prepared every time before an experiment.
Dilutions of BODIPY FL VH032 (5, 1-to-2 dilutions, a concentration range of 0.06 nM to 500 nM) was incubated with 2 nM Tb-anti-GST along with, group 1: 2 nM GST-VCB+DMSO; group 2: 2 nM GST-VCB+VH298 (2, 30 μM); or group 3: without GST-VCB+DMSO. The TR-FRET signals were monitored every 30 min from 30 min to 300 min with a PHERAstar FS plate reader equipped with a TR-FRET optic module (excitation: 340 nm; emission 1: 520 nm; emission 2: 490 nm). The TR-FRET signals were fitted into GraphPad Prism 8.4.3 software (GraphPad Software; San Diego, CA) using a one-site total binding equation to derive curves for each group.

`Cc1ncsc1-c1ccc(CNC(=O)[C@@H]2C[C@@H](O)CN2C(=O)[C@@H](NC(=O)C2(C#N)CC2)C(C)(C)C)cc1` [VH298 (2), (2S,4R)-1-((S)-2-(1-Cyanocyclopropanecarboxamido)-3,3-dimethylbutanoyl)-4-hydroxy-N-(4-(4-methylthiazol-5-yl)benzyl)pyrrolidine-2-carboxamide]: the “TR-FRET signal of the positive control group” value on GST-VCB protein complex [1] (VH298 30 μM, 2 nM GST-VCB, 4 nM probe, all incubation times 30 to 300 min) was 278.7±4.5 RTU. Also, the “FP signal of the positive control” value at GST-VCB protein complex [2] (VH298 30 μM, 10 nM probe, 100 nM GST-VCB, 90 min) is given as 14.5 mP. For the same compound, at GST-VCB protein complex [3], the “FP signal, GST-VCB-mediated non-specific interaction” value was determined as 43.0 mP.
Regarding `Cc1ncsc1-c1ccc([C@H](C)NC(=O)[C@@H]2C[C@@H](O)CN2C(=O)[C@@H](N)C(C)(C)C)cc1` [Me-VH032 amine (7)], at GST-VCB protein complex [1] (2 nM GST-VCB), the IC50 was 7900 nM and the Ki turned out to be 3400 nM. Besides, the “concentration at which the compound disturbed the FP assay detection (assay interference)” value at GST-VCB protein complex [2] (FP assay, not observed in TR-FRET) is on record as no less than 370 nM.
On to `Cc1ncsc1-c1ccc(CNC(=O)[C@@H]2C[C@@H](O)CN2C(=O)[C@@H](NC(=O)OC(C)(C)C)C(C)(C)C)cc1` [BOC-VH032 (8)], for which the equilibrium dissociation constant (Kd) on VCB is 6500 nM. Further, the IC50 is 4900 nM on GST-VCB protein complex [1] (2 nM GST-VCB) and 16300 nM at GST-VCB protein complex [2] (10 nM BODIPY FL VH032 (5), 100 nM GST-VCB, 90-min incubation). The Ki turned out to be 2100 nM at GST-VCB protein complex [1] (2 nM GST-VCB) and 8000 nM on GST-VCB protein complex [2] (10 nM BODIPY FL VH032 (5), 100 nM GST-VCB, 90-min incubation, read-out: Ki, pVHL FP assay (Nikolovska-Coleska method)).
Regarding `NCCCCNC(=O)COc1cccc2c1C(=O)N(C1CCC(=O)NC1=O)C2=O` (stereo not drawn), the “pVHL inhibitory activity in the TR-FRET binding assay” value at GST-VCB protein complex [1] was “inactive”. Besides, on GST-VCB protein complex [2] (90-min incubation), the “pVHL inhibitory activity in the FP assay” value is given as “did not show pVHL inhibitory activity”.
As to `Cc1ncsc1-c1ccc(CNC(=O)[C@@H]2C[C@@H](O)CN2C(=O)[C@@H](NC(=O)COCCOCCOCCOCCN)C(C)(C)C)cc1` [VH032-PEG4-amine (10)], on GST-VCB protein complex [1] (2 nM GST-VCB), the IC50 came out at 5.9 nM.
As to `Cc1sc2c(c1C)C(c1ccc(Cl)cc1)=N[C@@H](CC(=O)NCCCCNC(=O)COc1cccc3c1C(=O)N(C1CCC(=O)NC1=O)C3=O)c1nnc(C)n1-2` (stereo partly drawn) [dBET1 (12)], at GST-VCB protein complex [1], the “pVHL inhibitory activity in the TR-FRET binding assay” value was “inactive”. Besides, the “pVHL inhibitory activity in the FP assay” value at GST-VCB protein complex [2] (90-min incubation) was “did not show pVHL inhibitory activity”.
For the compound `CC1=CC(C)=[N+]2C1=Cc1ccc(CCC(=O)NCCOCCOCCOCCOCC(=O)NC(C(=O)N3CC(O)CC3C(=O)NCc3ccc(-c4scnc4C)cc3)C(C)(C)C)n1[B-]2(F)F` [BODIPY FL VH032 (5), (2S,4R)-1-4S)-2-(tert-butyl)-21-(5,5-difluoro-7,9-Dimethyl-5H-5Λ^4,6Λ^4-dipyrrolo[1,2-c:2′,1′-f][1,3,2]diazaborinin-3-yl)-4,19-dioxo-6,9,12,15-tetraoxa-3,18-diazahenicosanoyl)-4-hydroxy-N-(4-O-methylthiazol-5-yl)benzyl)pyrrolidine-2-carboxamide], the Kd at GST-VCB protein complex [4] (90-min incubation, 2 nM Tb-anti-GST) came out at 3.01 nM; at GST-VCB protein complex [4] (120-min incubation), 3.04 nM; at GST-VCB protein complex [4] (150-min incubation) it was 3.01 nM; on GST-VCB protein complex [4] (180-min incubation), 2.98 nM; on GST-VCB protein complex [4] (240-min incubation), 2.98 nM; on GST-VCB protein complex [4] (300-min incubation) it was 3.04 nM. Moreover, the “highest TR-FRET signal fold change, 2 nM GST-VCB+DMSO / without GST-VCB+DMSO” value at GST-VCB protein complex [4] (at 3.9 nM BODIPY FL VH032 (5), 90 min) is 16.2 fold. Further, the “highest TR-FRET signal fold change, 2 nM GST-VCB+DMSO / 2 nM GST-VCB+VH-298 (2)” value at GST-VCB protein complex [4] (at 7.8 nM BODIPY FL VH032 (5), 90 min) was 15.1 fold.
